The source of these data is US11466013B2 (Betta Pharmaceuticals Co., LTD, priority 2018, dated 2022).

The target in one assay is ERK2 (Homo sapiens, UniProt P28482). Briefly: Kinase assay (Caliper, FAM-labeled peptide), ERK2. The format is biochemical. The method, then: (§1) The compound was diluted to the desired concentration with DMSO, transferred 100 μL to a 96-well plate, and performed a gradient dilution 10 μL of compound from each well was taken and mixed with 90 μL of kinase buffer, and then transferred 5 μL from each well to a 384-well plate. Kinase and FAM-labeled peptide and ATP were added to 1× kinase alkaline buffer to obtain 2.5× enzyme solution and 2.5× peptide solution, 10 μL of 2.5× enzyme solution was added to the 384-well assay plate. After incubating for 10 minutes at room temperature, 10 μL of 2.5× peptide solution was added to the 384-well plate. After reacting for a specific time at […], 25 μL of termination buffer was added to stop reaction. After reading the collected data on Caliper, the data was converted to inhibition percentage. Inhibition percentage=(maximum value−conversion value)/(maximum value−minimum value)*100.
(§2) The “maximum” is the DMSO control, the “minimum” indicates the low control.
(§3) Graphpad Prism software was used to perform curve fitting and obtain IC50 value.

The next assay addresses ERK1 (Homo sapiens, UniProt P27361). Briefly: Kinase assay (Caliper, FAM-labeled peptide), ERK1. It is filed as biochemical. The method, then:
as §1, §2, §3

Molecules are shown by their SMILES.

What is called IC50 is the midpoint of a concentration-inhibition curve.

ERK2, sequence (P28482 whole entry): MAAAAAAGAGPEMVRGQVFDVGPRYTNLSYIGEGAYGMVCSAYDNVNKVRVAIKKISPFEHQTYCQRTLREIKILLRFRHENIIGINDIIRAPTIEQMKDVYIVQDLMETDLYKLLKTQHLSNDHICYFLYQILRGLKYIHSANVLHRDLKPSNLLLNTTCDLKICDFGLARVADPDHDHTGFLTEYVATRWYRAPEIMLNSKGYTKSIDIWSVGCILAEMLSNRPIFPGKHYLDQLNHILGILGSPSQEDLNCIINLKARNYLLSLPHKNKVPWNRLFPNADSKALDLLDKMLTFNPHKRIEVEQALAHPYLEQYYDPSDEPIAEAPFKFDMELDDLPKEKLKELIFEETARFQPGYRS
ERK1, sequence (P27361 whole entry): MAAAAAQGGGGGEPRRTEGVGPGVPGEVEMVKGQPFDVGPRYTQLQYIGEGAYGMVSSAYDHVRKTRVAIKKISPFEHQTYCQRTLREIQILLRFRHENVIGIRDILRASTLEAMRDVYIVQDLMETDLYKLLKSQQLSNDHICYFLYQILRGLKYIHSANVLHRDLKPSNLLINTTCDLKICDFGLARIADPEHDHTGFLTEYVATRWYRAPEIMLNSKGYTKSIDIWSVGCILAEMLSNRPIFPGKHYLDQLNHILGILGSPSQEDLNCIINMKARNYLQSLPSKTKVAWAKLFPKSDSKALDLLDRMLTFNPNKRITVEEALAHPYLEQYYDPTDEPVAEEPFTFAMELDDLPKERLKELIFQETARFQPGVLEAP

For `Cc1cnc(Nc2ccc(OC(C)C)nc2)nc1-c1cc2n(c1)CCN(Cc1cc(F)ccc1CO)C2=O` [Example 159, 2-(5-fluoro-2-(hydroxymethyl)benzyl)-7-(2-((6-isopropoxypyridin-3-yl)amino) 5-methylpyrimidin-4-yl)-3,4-dihydropyrrolo[1,2-a] pyrazine-1(2H)-one], the IC50 at ERK2 worked out at 1.7 nM; on ERK1 it was 1.9 nM.

On to `CC(C)Nc1cc(-c2cnc(C(=O)NCc3cccc(F)c3CO)s2)c(Cl)cn1` [Example 5, 5-(5-chloro-2-(isopropylamino)pyridin-4-yl)-N-(3-fluoro-2-(hydroxymethyl)benzyl) thiazole-2-formamide], for which the IC50 against ERK2 turned out to be 1.2 nM; at ERK1, 1.5 nM.

As for `CC(C)Nc1cc(-c2cc3n(c2)CC2(COC(C)(C)OC2)CN(Cc2cc(F)ccc2CO)C3=O)c(Cl)cn1` [Example 28, 8-(5-chloro-2-(isopropylamino)pyridin-4-yl)-2-(5-fluoro-2-(hydroxymethyl)benzyl)-2′,2′-dimethyl-2,3-dihydro-1h,5h-spiro[pyrrolo [1,2-a][1,4]diazepine-4,5′-[1,3]dioxane]-1-one], the IC50 worked out at 1.6 nM on ERK2 and 0.9 nM at ERK1.

Regarding `Cc1cnc(NC(C)CO)nc1-c1cc2n(c1)CCN(Cc1cc(F)ccc1CO)C2=O` (stereo not shown) [Example 121, 2-(5-fluoro-2-(hydroxymethyl)benzyl)-7-(2-((1-hydroxypropyl-2-yl)amino)-5-methylpyrimidin-4-yl)-3,4-dihydropyrrolo[1,2-a] pyrazine-1(2H)-one], the IC50 on ERK2 and against ERK1 was 0.2 nM each time.

For `Cc1cnc(Nc2cccc3c2cnn3C)nc1-c1cc2n(c1)CCN(Cc1cc(F)ccc1CO)C2=O` [Example 141, 2-(5-fluoro-2-(hydroxymethyl)benzyl)-7-(5-methyl-2-((1-methyl-1h-indazole-4-yl)amino)pyrimidin-4-yl)-3,4-dihydropyrrolo[1,2-a] pyrazine-1(2H)-one], the 50% inhibitory concentration (IC50) on ERK2 is 0.87 nM; against ERK1, 0.93 nM.

`O=C1c2cc(-c3cc(NCC(F)(F)F)ncc3Cl)cn2CCN1Cc1cc(F)ccc1CO` [Example 124, 7-(5-chloro-2-((2,2,2-trifluoroethyl)amino)pyridine-4-yl)-2-(5-fluoro-2-(hydroxymethyl)benzyl)-3,4-dihydropyrrolo[1,2-a] pyrazine-1(2H)-one]: the values for the IC50 at ERK2 and against ERK1 were 0.98 nM and 0.79 nM, respectively.

Regarding `CC(C)Nc1cc(-c2cc3n(c2)CC2(COCOC2)CN(Cc2cc(F)ccc2CO)C3=O)c(Cl)cn1` [Example 43, 8-(5-Chloro-2-(isopropylamino)pyridin-4-yl)-2-(5-fluoro-2-(hydroxymethyl)benzyl)-2,3-dihydro-1H,5H-spiro[pyrrolo[1,2-a][1,4]diazepine-4,5′-[1,3]dioxane]-1-one], the figures for the IC50 on ERK2 and at ERK1 were 0.5 nM and 0.6 nM, respectively.

Consider `Cc1cnc(Nc2cccc3cnn(C)c23)nc1-c1cc2n(c1)CCN(Cc1cc(F)ccc1CO)C2=O` [Example 140, 2-(5-fluoro-2-(hydroxymethyl)benzyl)-7-(5-methyl-2-((1-methyl-1h-indazole-7-yl)amino)pyrimidin-4-yl)-3,4-dihydropylrolo[1,2-a] pyrazine-1(2H)-one], for which the figures for the IC50 against ERK2 and on ERK1 were 1.1 nM and 1.3 nM, respectively.

Consider `CC(C)Nc1cc(-c2cnc(C(=O)NCc3ccccc3CO)s2)c(Cl)cn1` [Example 3, 5-(5-chloro-2-(isopropylamino)pyridin-4-yl)-N-(2-(hydroxymethyl)benzyl) thiazole-2-formamide], for which the IC50 on ERK2 stood at 0.7 nM; at ERK1, 0.9 nM.

On to `COC[C@H]1Cn2cc(-c3cc(NCC(C)(C)O)ncc3Cl)cc2C(=O)N1Cc1cc(F)ccc1CO` [Example 65, (R)-7-(5-chloro-2-((2-hydroxy-2-methylpropyl)amino)pyridine-4-yl)-2-(5-fluoro-2-(hydroxymethyl)benzyl)-3-(methoxymethyl)-3,4-dihydropyrrolo[1,2-a] pyrazine-1(2H)-one], for which the figures for the IC50 against ERK2 and against ERK1 were 1.6 nM and 0.97 nM, respectively.

For the molecule `Cc1cnc(Nc2ccc3c(cnn3C)c2)nc1-c1cc2n(c1)CCN(Cc1cc(F)ccc1CO)C2=O` [Example 134, 2-(5-fluoro-2-(hydroxymethyl)benzyl)-7-(5-methyl-2-((1-methyl-1h-indazole-5-yl)amino)pyrimidin-4-yl)-3,4-dihydropyrrolo[1,2-a] pyrazine-1(2H)-one], the IC50 on ERK2 and against ERK1 was 0.5 nM each time.

For `CC(C)Nc1cc(-c2cc3n(c2)CC(CO)CN(Cc2cc(F)ccc2CO)C3=O)c(Cl)cn1` (stereo not shown) [Example 42, 8-(5-chloro-2-(isopropylamino)pyridin-4-yl)-2-(5-fluoro-2-(hydroxymethyl)benzyl)-4-(hydroxymethyl)-2,3,4,5-tetrahydro-1H-pyrrolo[1,2-a][1,4]diazepine-1-one], the IC50 against ERK2 stood at 1.6 nM; against ERK1, 2.5 nM.

For `COC[C@H]1Cn2cc(-c3cc(NC4COC4)ncc3Cl)cc2C(=O)N1Cc1cc(F)ccc1CO` [Example 60, (R)-7-(5-chloro-2-(oxacyclobutane-3-ylamino)pyridine-4-yl)-2-(5-fluoro-2-(hydroxymethyl)benzyl)-3-(methoxymethyl)-3,4-dihydropyrrolo[1,2-a] pyrazine-1(2H)-one], the figures for the IC50 on ERK2 and at ERK1 were 0.46 nM and 0.54 nM, respectively.

`Cc1cnc(NC(C)C)nc1-c1cc2n(c1)CCN(Cc1cc(F)ccc1CO)C2=O` [Example 123, 2-(5-fluoro-2-(hydroxymethyl)benzyl)-7-(2-(isopropylamino)-5-methylpyrimidin-4-yl)-3,4-dihydropyrrolo[1,2-a] pyrazine-1(2H)-one]: the IC50 against ERK2 worked out at 0.44 nM; at ERK1, 0.53 nM.

For the molecule `COC[C@H]1Cn2cc(-c3cc(NC4CCOC4)ncc3Cl)cc2C(=O)N1Cc1cc(F)ccc1CO` (stereo partly drawn) [Example 61, (3R)-7-(5-chloro-2-((tetrahydrofuran-3-yl)amino)pyridine-4-yl)-2-(5-fluoro-2-(hydroxymethyl)benzyl)-3-(methoxymethyl)-3,4-dihydropyrrolo[1,2-a] pyrazine-1(2H)-one], the IC50 was determined as 0.41 nM against ERK2 and 0.38 nM on ERK1.

Consider `COC[C@H]1Cn2cc(-c3cc(NC4CCOC(C)(C)C4)ncc3Cl)cc2C(=O)N1Cc1cc(F)ccc1CO` (stereo partly drawn) [Example 78, (3R)-7-(5-chloro-2-((2,2-dimethyltetrahydro-2h-pyran-4-yl)amino)pyridine-4-yl)-2-(5-fluoro-2-(hydroxymethyl)benzyl)-3-(methoxymethyl)-3,4-dihydropyrrolo[1,2-a] pyrazine-1(2H)-one], for which the IC50 on ERK2 amounted to 1.5 nM; on ERK1 it was 0.87 nM.

For `COC[C@H]1Cn2cc(-c3cc(Nc4c(C)noc4C)ncc3Cl)cc2C(=O)N1Cc1cc(F)ccc1CO` [Example 81, (R)-7-(5-chloro-2-((3,5-dimethyl-isoxazole-4-yl)amino)pyridine-4-yl)-2-(5-fluoro-2-(hydroxymethyl)benzyl)-3-(methoxymethyl)-3,4-dihydropyrrolo[1,2-a] pyrazine-1(2H)-one], the IC50 on ERK2 was 1.5 nM; at ERK1 it was 1.1 nM.

Regarding `COCC1Cn2cc(-c3cc(NC4CCN(C(C)=O)CC4)ncc3Cl)cc2C(=O)N1Cc1cc(F)ccc1CO` (stereo not shown) [Example 110, 7-(2-((1-acetylpiperidin-4-yl)amino)-5-chloropyridine-4-yl)-2-(5-fluoro-2-(hydroxymethyl)benzyl)-3-(methoxymethyl)-3,4-dihydropyrrolo[1,2-a] pyrazine-1(2H)-one], the IC50 against ERK2 was 0.7 nM; on ERK1, 0.6 nM.

As for `COC[C@H]1Cn2cc(-c3cc(NC4CCCC4)ncc3Cl)cc2C(=O)N1Cc1cc(F)ccc1CO` [Example 77, (R)-7-(5-chloro-2-(cyclopentylamino)pyridin-4-yl)-2-(5-fluoro-2-(hydroxymethyl)benzyl)-3-(methoxymethyl)-3,4-dihydropyrrolo[1,2-a] pyrazine-1(2H)-one], the figures for the IC50 at ERK2 and at ERK1 were 1.5 nM and 1.1 nM, respectively.

For the molecule `CC(C)Nc1cc(-c2cc3n(c2)C[C@H](CO)N(Cc2cc(F)ccc2CO)C3=O)c(Cl)cn1` [Example 59, (R)-7-(5-chloro-2-(isopropylamino)pyridin-4-yl)-2-(5-fluoro-2-(hydroxymethyl)benzyl)-3-(hydroxymethyl)-3,4-dihydropyrrolo[1,2-a] pyrazine-1(2H)-one], the values for the IC50 on ERK2 and at ERK1 were 0.49 nM and 0.51 nM, respectively.

Take `Cc1cnc(Nc2cccc(C)c2C)nc1-c1cc2n(c1)CCN(Cc1cc(F)ccc1CO)C2=O` [Example 136, 7-(2-((2,3-dimethylphenyl)amino)-5-methylpyrimidin-4-yl)-2-(5-fluoro-2-(hydroxymethyl)benzyl)-3,4-dihydropyrrolo[1,2-a] pyrazine-1(2H)-one]: the results for the IC50 against ERK2 and on ERK1 were 0.4 nM and 0.9 nM, respectively.

Regarding `Cc1cnc(Nc2ccccc2)nc1-c1cc2n(c1)CCN(Cc1cc(F)ccc1CO)C2=O` [Example 137, 2-(5-fluoro-2-(hydroxymethyl)benzyl)-7-(5-methyl-2-(phenylamino)pyrimidin-4-yl)-3,4-dihydropyrrolo[1,2-a] pyrazine-1(2H)-one], the values for the IC50 on ERK2 and at ERK1 were 0.6 nM and 2.7 nM, respectively.

`COC[C@H]1Cn2cc(-c3cc(Nc4ccn(CC(F)F)n4)ncc3Cl)cc2C(=O)N1Cc1cc(F)ccc1CO` [Example 114, (R)-7-(5-chloro-2-((1-(2,2-difluoroethyl)-1h-pyrazole-3-yl)amino)pyridine-4-yl)-2-(5-fluoro-2-(hydroxymethyl)benzyl)-3-(methoxymethyl)-3,4-dihydropyrrolo[1,2-a] pyrazine-1(2H)-one]: the IC50 against ERK2 and at ERK1 was 1.3 nM throughout.
